Experimental data taken from patent publication US6123959A, “Aqueous composition comprising active ingredients for the de-pigmentation of the skin” (Univera Pharmaceuticals, Inc., priority 1998, dated 2000).
Like-named read-outs stand apart in the source and are kept apart here. One block for each molecule: values may come before it.

What was measured:
[1] = test system: tyrosinase; conditions: cited from earlier work
[2] = test system: skin; conditions: cited from earlier work; for quantity required to achieve a similar effect, compared to hydroquinone: relative to quantity of hydroquinone used
[3] = test system: tyrosinase; assay: in vitro tyrosinase inhibition assay (L-Dopa conversion to dopachrome, absorption at 475 nm); format: biochemical; conditions: pH 6.8
Procedure: An in vitro tyrosinase inhibition assay was carried out using a modification of the procedure described by Pomerantz […] J. Biol. Chem. 238:2351-2357. According to this method, the conversion of L-Dopa, a substrate of tyrosinase, into dopaquinone and then dopachrome is followed by monitoring absorption at 475 nm in a spectrophotometer. As the colored substance dopachrome absorbs light having a wavelength of 475 nm, a quantitative measurement of the time-related conversion and thus the activity of tyrosinase can be made.
Each sample was prepared in a 50 mM potassium phosphate buffer which had been adjusted to pH 6.8, and stabilized by the addition of 10% DMSO. Tyrosinase (48 u, "u" represents the activity units of an enzyme, measured in mM substratum conversion per minute) was added to each sample. A double assessment was carried out for each inhibitor, using two different starting concentrations of L-Dopa: 0.4 mM and 0.2 mM. Controls were also run using the same concentrations of uninhibited tyrosinase to serve as the neutral value. In the control samples the volume of inhibitor was replaced with 50 mM potassium phosphate buffer. The time-related difference in absorption, and thus the conversion of L-Dopa, was followed for a period of two minutes.
The conversion kinetics of the tyrosinase was measured upon addition of the following concentrations of inhibitor: arbutin (0.9 mM); aloesin (0.0192 mM; 0.0385 mM and 0.0769 mM) and with the respective combination of both of the inhibitors. Enzyme inhibition was determined from the difference between the inhibited and the uninhibited kinetics. It is worth noting that the compositions examined in this example contain no liposomes, as the penetration ability and bio-availability are of no significance in an in vitro test. The purpose of these in vitro studies was to determine the efficacy of the inhibitors (arbutin and aloesin) individually and combinations thereof.

[4] = test system: tyrosinase; assay: inhibitory effect on tyrosinase of octylaloesin compared to aloesin; format: biochemical
[5] = test system: tyrosinase; conditions: cited from earlier work; for mode of tyrosinase inhibition: Lineweaver Burk diagram
[6] = test system: synthesis of melanin; conditions: cited from earlier work

% Inhibition Tyrosinase ([3]; arbutin 0.9 mM): 29%
Compound: OC[C@H]1O[C@@H](Oc2ccc(O)cc2)[C@H](O)[C@@H](O)[C@@H]1O [arbutin]
mode of tyrosinase inhibition [1]: competitive inhibitors | quantity required to achieve a similar effect, compared to hydroquinone [2]: over 100 times

Compound: CCCCCCCCOc1cc(C)c2c(=O)cc(CC(C)=O)oc2c1[C@@H]1O[C@H](CO)[C@@H](O)[C@H](O)[C@H]1O [octylaloesin]
inhibitory effect on tyrosinase compared to aloesin [4]: significantly higher inhibitory effect on tyrosinase

% Inhibition Tyrosinase ([3]; aloesin 0.0192 mM): 20% | % Inhibition Tyrosinase ([3]; aloesin 0.0385 mM): 32% | % Inhibition Tyrosinase ([3]; aloesin 0.0769 mM): 46%
Compound: CC(=O)Cc1cc(=O)c2c(C)cc(O)c([C@@H]3O[C@H](CO)[C@@H](O)[C@H](O)[C@H]3O)c2o1 [aloesin]
mode of tyrosinase inhibition [5]: non-competitive inhibitors | inhibition of tyrosinase [5]: effective inhibitors of tyrosinase

Compound: COc1cc(/C=C/C(=O)O[C@@H]2[C@@H](O)[C@H](O)[C@@H](CO)O[C@H]2c2c(O)cc(C)c3c(=O)cc(CC(C)=O)oc23)ccc1O [2"-O-feruloylaloesin]
mode of tyrosinase inhibition [5]: non-competitive inhibitors | inhibition of tyrosinase [5]: effective inhibitors of tyrosinase

Compound: Oc1ccc(O)cc1 [hydroquinone]
side effects ([2]; applied over long periods of time): serious side effects | photosensitivity of the skin ([2]; exposed to UV light): increased photosensitivity | de-pigmentation (persistence) ([2]; in vivo): permanent de-pigmentation

Compound: O=C1O[C@H]([C@@H](O)CO)C(O)=C1O [ascorbic acid]
mode of tyrosinase inhibition [1]: competitive inhibitors | quantity required to achieve a similar effect, compared to hydroquinone [2]: 17 times

Compound: CC/C=C\C/C=C\C/C=C\CCCCCCCC(=O)O [linolenic acid]
inhibition of the synthesis of melanin [6]: inhibit the synthesis of melanin

Compound: O=c1cc(CO)occ1O [kojic acid]
mode of tyrosinase inhibition [1]: competitive inhibitors
